From patent publication US8501721B2, “Postprandial hyperglycemia-improving agent” (Kao Corporation, priority 2009, dated 2013)

System: Wistar rats
Experiment: Postprandial maximum increase of blood glucose in rat after oral administration of cooked white rice and triolein
Format: in vivo
Settings: for Postprandial maximum increase of blood glucose (maximum increase value from initial value, relative value based on 100 for control group): with 2 mg white rice and 1.5 μg triolein per g body weight, fasted male Wistar rats, average±standard error
Description: To white rice (Koshihikari produced in Tochigi prefecture), water (1.5 times equivalent to the volume of the white rice) was added to allow the rice to absorb the water for 30 minutes. Then, the rice was cooked with a rice cooker (ZOJIRUSHI microcomputer-controlled rice cooker NS-KG05, manufactured by Zojirushi Corporation). Water and triolein (manufactured by Sigma-Aldrich Corporation) were added to the cooked rice, followed by homogenization until the mixture was sufficiently homogenized, thereby yielding a sample for administration. The sample for administration was orally probe-administered to a group at 2 mg of white rice per g body weight and 1.5 μg of triolein per g body weight (the group as a control group). Each of the purified cycloartenol produced in Example 1 described above was added to a sample for administration (dissolved in triolein). Each of the resultants was orally probe-administered to a group at 2 mg of white rice per g body weight, 1.5 μg of triolein per g body weight, and 0.075 μg, or 0.15 μg, of cycloartenol equivalent per g body weight (the groups as Test group 1 and 2). Further, purified 24-methylenecycloartanol was added to a sample for administration (dissolved in triolein). The resultant was orally probe-administered to a group at 2 mg of white rice per g body weight, 1.5 μg of triolein per g body weight, and 0.15 μg of 24-methylenecycloartanol equivalent per g body weight (the group as Comparative group).
8-week old male Wistar rats (supplied by Japan SLC Inc.), after 15 hours of fasting, were divided into groups each consisting of 10 rats with their body weight being almost the same between the groups. Immediately after the administration to each group, blood sample was collected from tail vein sequentially. The blood sample was measured for its blood glucose level by using ACCU-CHEK AVIVA (manufactured by Roche Diagnostics GmbH) to calculate the maximum increase of blood glucose.
Results are represented as average±standard error, and statistical significant differences between groups were determined by the Dunnett's test with respect to the control group (*p <0.05).

[1] = 0.15 μg per g body weight, *p<0.05 vs control (Dunnett)

SMILES	Postprandial maximum increase of blood glucose (maximum increase value from initial value, relative value based on 100 for control group) [1]	postprandial increase of blood glucose (result in words) (0.075 μg per g body weight, rat)	Postprandial maximum increase of blood glucose (maximum increase value from initial value, relative value based on 100 for control group) (0.075 μg per g body weight)	postprandial increase of blood glucose (result in words) (0.15 μg per g body weight, rat)	effect of inhibiting the postprandial increase of blood glucose compared with 24-methylenecycloartanol (rat, comparison at 0.15 μg per g body weight)
C=C(CC[C@@H](C)[C@H]1CC[C@@]2(C)[C@@H]3CC[C@H]4C(C)(C)[C@@H](O)CC[C@@]45C[C@@]35CC[C@]12C)C(C)C [24-methylenecycloartanol, reference compound]	89.25 ± 4.32 relative value based on 100 for control group				
CC(C)=CCC[C@@H](C)[C@H]1CC[C@@]2(C)[C@@H]3CC[C@H]4C(C)(C)[C@@H](O)CC[C@@]45C[C@@]35CC[C@]12C [cycloartenol]	79.74 ± 7.71* relative value based on 100 for control group	tended to be decreased	92.03 ± 3.16 relative value based on 100 for control group	significantly inhibited	stronger than that of 24-methylenecycloartanol
